Literature values as cited in US8940742B2, “Heterocyclic compounds and uses thereof” (Infinity Pharmaceuticals, Inc., priority 2012, dated 2015).

What was measured:
[1] = tested on: p190 transduced leukemic cells; conditions: about 70 mg/kg twice daily; cited from earlier work
NZB/W F1 mice = conditions: NZB/W model, profilactic and therapeutic; cited from earlier work

SMILES	leukemogenesis [1]	blocking disease (NZB/W F1 mice)
Cc1ccc(NC(=O)c2ccc(CN3CCN(C)CC3)cc2)cc1Nc1nccc(-c2cccnc2)n1 [imatinib]	delay but not cure leukemogenesis	
CC(C)C[C@H](NC(=O)[C@H](Cc1ccccc1)NC(=O)c1cnccn1)B(O)O [Bortezimib]		effective at blocking disease
